Data as given in ChEMBL document CHEMBL4359901, “Cyclic enaminone as new chemotype for selective cyclooxygenase-2 inhibitory, anti-inflammatory, and analgesic activities” (Eur J Med Chem, 2019).
pIC50: −log10 of the molar value.

Columns and labels:
[1] = Selectivity index, ratio of IC50 for inhibition of ovine COX1 to IC50 for inhibition of recombinant human COX2
Rattus norvegicus [2] = test: Antiinflammatory activity in Wistar albino rat assessed as reduction in carrageenan-induced paw edema at 25 mg/kg, ip measured after 1 hr by plethysmometric method (reference value: 1.43 +/- 0.19 ml); format: functional
Rattus norvegicus [3] = test: Antiinflammatory activity in Wistar albino rat assessed as reduction in carrageenan-induced paw edema at 25 mg/kg, ip measured after 3 hrs by plethysmometric method (reference value: 1.75 +/- 0.33 ml); format: functional
[4] = Ulcerogenicity in Sprague-Dawley rat assessed as formation of ulcer at 50 mg/kg, po after 1 hr by microscopic analysis; format: toxicity, organism-based; settings: in vivo
Rattus norvegicus [5] = test: Antiinflammatory activity in Wistar albino rat assessed as reduction in carrageenan-induced paw volume at 12.5 mg/kg, ip measured after 1 hr by plethysmometric method (reference value: 1.43 +/- 0.19 ml); format: functional
Rattus norvegicus [6] = test: Antiinflammatory activity in Wistar albino rat assessed as reduction in carrageenan-induced paw volume at 12.5 mg/kg, ip measured after 2 hrs by plethysmometric method (reference value: 1.58 +/- 0.21 ml); format: functional
Rattus norvegicus [7] = test: Analgesic activity in Wistar albino rat assessed as reaction time at 25 mg/kg, ip measured after 30 mins for 15 secs by hot plate method (reference value: 4.21 +/- 0.41 sec); format: functional
Rattus norvegicus [8] = test: Analgesic activity in Wistar albino rat assessed as reaction time at 25 mg/kg, ip measured after 180 mins for 15 secs by hot plate method (reference value: 3.87 +/- 0.38 sec); format: functional
Rattus norvegicus [9] = test: Analgesic activity in Wistar albino rat assessed as reaction time at 12.5 mg/kg, ip measured after 30 mins for 15 secs by hot plate method (reference value: 4.21 +/- 0.41 sec); format: functional
Rattus norvegicus [10] = test: Antiinflammatory activity in Sprague-Dawley rat model of carrageenan-induced thermal hyperalgesia assessed as paw withdrawal latency time at 30 mg/kg, po administered 1 hr prior to carrageenan challenge and measured after 1 hr by planter test (reference value: 8.88 +/- 0.52 sec); format: functional
Rattus norvegicus [11] = test: Antiinflammatory activity in Sprague-Dawley rat model of carrageenan-induced thermal hyperalgesia assessed as paw withdrawal latency time at 30 mg/kg, po administered 1 hr prior to carrageenan challenge and measured after 3 hrs by planter test (reference value: 4.13 +/- 0.45 sec); format: functional
Rattus norvegicus [12] = test: Antiinflammatory activity in Sprague-Dawley rat model of carrageenan-induced thermal hyperalgesia assessed as paw withdrawal latency time at 50 mg/kg, po administered 1 hr prior to carrageenan challenge and measured after 3 hrs by planter test (reference value: 4.13 +/- 0.45 sec); format: functional
Rattus norvegicus [13] = test: Antiinflammatory activity in Sprague-Dawley rat model of carrageenan-induced thermal hyperalgesia assessed as paw withdrawal latency time at 30 mg/kg, po administered 1 hr prior to carrageenan challenge and measured after 4 hrs by planter test (reference value: 5.47 +/- 0.84 sec); format: functional
Rattus norvegicus [14] = test: Antiinflammatory activity in Sprague-Dawley rat model of carrageenan-induced thermal hyperalgesia assessed as paw withdrawal latency time at 50 mg/kg, po administered 1 hr prior to carrageenan challenge and measured after 4 hrs by planter test (reference value: 5.47 +/- 0.84 sec); format: functional
Rattus norvegicus [15] = test: Antiinflammatory activity in Sprague-Dawley rat model of carrageenan-induced thermal hyperalgesia assessed as paw withdrawal latency pressure at 50 mg/kg, po administered 1 hr prior to carrageenan challenge and measured after 1 hr by Von-frey test (reference value: 159.88 +/- 4.66 g); format: functional
Rattus norvegicus [16] = test: Antiinflammatory activity in Sprague-Dawley rat model of carrageenan-induced thermal hyperalgesia assessed as paw withdrawal latency pressure at 30 mg/kg, po administered 1 hr prior to carrageenan challenge and measured after 5 hrs by Von-frey test (reference value: 169.58 +/- 4.26 g); format: functional
Rattus norvegicus [17] = test: Antiinflammatory activity in Sprague-Dawley rat model of carrageenan-induced thermal hyperalgesia assessed as paw withdrawal latency pressure at 30 mg/kg, po administered 1 hr prior to carrageenan challenge and measured after 2 hrs by Randall-Selitto test (reference value: 231.13 +/- 3.15 g); format: functional
Rattus norvegicus [18] = test: Antiinflammatory activity in Sprague-Dawley rat model of carrageenan-induced thermal hyperalgesia assessed as paw withdrawal latency pressure at 30 mg/kg, po administered 1 hr prior to carrageenan challenge and measured after 3 hrs by Randall-Selitto test (reference value: 176.84 +/- 8.1 g); format: functional
Rattus norvegicus [19] = test: Antiinflammatory activity in Sprague-Dawley rat model of carrageenan-induced thermal hyperalgesia assessed as paw withdrawal latency pressure at 50 mg/kg, po administered 1 hr prior to carrageenan challenge and measured after 3 hrs by Randall-Selitto test (reference value: 176.84 +/- 8.1 g); format: functional
Rattus norvegicus [20] = test: Antiinflammatory activity in Sprague-Dawley rat model of carrageenan-induced thermal hyperalgesia assessed as paw withdrawal latency pressure at 50 mg/kg, po administered 1 hr prior to carrageenan challenge and measured after 3 hrs by Randall-Selitto test (reference value: […] g); format: functional
Rattus norvegicus [21] = test: Antiinflammatory activity in Sprague-Dawley rat model of carrageenan-induced thermal hyperalgesia assessed as paw withdrawal latency pressure at 30 mg/kg, po administered 1 hr prior to carrageenan challenge and measured after 5 hrs by Randall-Selitto test (reference value: 224.08 +/- 7.12 g); format: functional
Rattus norvegicus [22] = test: Antiinflammatory activity in Sprague-Dawley rat model of carrageenan-induced thermal hyperalgesia assessed as paw withdrawal latency pressure at 50 mg/kg, po administered 1 hr prior to carrageenan challenge and measured after 5 hrs by Randall-Selitto test (reference value: 224.08 +/- 7.12 g); format: functional
[23] = Antioxidant activity assessed as DPPH radical scavenging activity at 10 uM/ml incubated for 20 mins by spectrophotometric method relative to control; format: functional
[24] = Antioxidant activity assessed as DPPH radical scavenging activity at 60 uM/ml incubated for 20 mins by spectrophotometric method relative to control; format: functional
[25] = Antioxidant activity assessed as DPPH radical scavenging activity incubated for 20 mins by spectrophotometric method; format: functional
[26] = Cardiotoxicity in Sprague-Dawley rat assessed as heart rate at 50 mg/kg; format: toxicity, organism-based; settings: in vivo
[27] = Ulcerogenicity in Sprague-Dawley rat assessed as formation of ulcer at 30 mg/kg, po after 1 hr by microscopic analysis; format: toxicity, organism-based; settings: in vivo
[28] = Ulcerogenicity in Sprague-Dawley rat assessed as formation of lesions at 30 mg/kg, po after 1 hr by microscopic analysis; format: toxicity, organism-based; settings: in vivo
[29] = target: Prostaglandin G/H synthase 1 (Ovis aries) (UniProt P05979); test: Inhibition of ovine COX1 assessed as reduction in PGF2alpha at 10 uM incubated for 2 mins using arachidonic acid as substrate by ELISA relative to control
[30] = target: Prostaglandin G/H synthase 2 (Homo sapiens) (UniProt P35354); test: Inhibition of recombinant human COX2 assessed as reduction in PGF2alpha at 10 uM incubated for 2 mins using arachidonic acid as substrate by ELISA relative to control

## CC(=O)N(C1=CC(=O)CCC1)c1ccc(Cl)cc1
[1]
  Ratio IC50: 109
Rattus norvegicus [2]
  Activity: 1.25 mL
Rattus norvegicus [3]
  Activity: 1.11 mL
[4]
  UI: 0
Rattus norvegicus [5]
  Activity: 1.3 mL
Rattus norvegicus [6]
  Activity: 1.26 mL
Rattus norvegicus [7]
  Time: 6.86 s
Rattus norvegicus [8]
  Time: 11.88 s
Rattus norvegicus [9]
  Time: 6.16 s
Rattus norvegicus [10]
  Time: 10.58 s
Rattus norvegicus [11]
  Time: 6.95 s
Rattus norvegicus [12]
  Time: 8.38 s
Rattus norvegicus [13]
  Time: 6.67 s
Rattus norvegicus [14]
  Time: 9.58 s
Rattus norvegicus [15]
  Activity: 170 g
Rattus norvegicus [16]
  Activity: 161.8 g
Rattus norvegicus [17]
  Activity: 262.26 g
Rattus norvegicus [18]
  Activity: 249.49 g
Rattus norvegicus [19]
  Activity: 263.26 g
Rattus norvegicus [20]
  Activity: 265.61 g
Rattus norvegicus [21]
  Activity: 264.48 g
Rattus norvegicus [22]
  Activity: 266.61 g
[23]
  Activity: 6.18%
[24]
  Activity: 65.3%
[25]
  pIC50: 4.32
[26]
  Activity: Non-Toxic
[27]
  Activity: Non-Toxic
[28]
  Activity: Non-Toxic
[29]
  inhibition: 10.8%
[30]
  inhibition: 96.9%
